Consider 1 compound from ChEMBL document CHEMBL1132093, “Fecal excretion pattern of bile acids in rats fed high fat diets and neomycin in induced colon tumorigenesis” (1999).

Molecules are shown by their SMILES.

Holding throughout (assay type): functional
The species entered for assay [1] is Rattus norvegicus. As to the kind of experiment: Effect on colon large bowel tumorigenesis in rats fed with cholesterol and cholic acid diet(Group 2 diet).
Assay [2] is filed under the species Rattus norvegicus. In words: Average number of tumors per rat in colon large bowel tumorigenesis in rats fed with safflower oil diet(Group 1 diet).
For assay [3], the species on record is Rattus norvegicus. In words: Average number of tumors per rat in colon small bowel tumorigenesis in rats fed with cholesterol and cholic acid diet(Group 2 diet).
Assay [4] is filed under the species Rattus norvegicus. In words: Average number of tumors per rat in colon large bowel tumorigenesis in rats fed with cholesterol and cholic acid diet(Group 2 diet).
The species entered for assay [5] is Rattus norvegicus. In words: Effect on colon large bowel tumorigenesis in rats fed with safflower oil diet(Group 1 diet).
Assay [6] is filed under the species Rattus norvegicus. As to the kind of experiment: Effect on colon small bowel tumorigenesis in rats fed with cholesterol and cholic acid diet(Group 2 diet).
For assay [7], the species on record is Rattus norvegicus. As to the kind of experiment: Effect on colon small bowel tumorigenesis in rats fed with safflower oil diet(Group 1 diet).
The species named for assay [8] is Rattus norvegicus. In words: Average number of tumors per rat in colon small bowel tumorigenesis in rats fed with safflower oil diet(Group 1 diet).

With `NC[C@@H]1O[C@H](O[C@H]2[C@@H](O)[C@H](O[C@@H]3[C@@H](O)[C@H](N)C[C@H](N)[C@H]3O[C@H]3O[C@H](CN)[C@@H](O)[C@H](O)[C@H]3N)O[C@@H]2CO)[C@H](N)[C@@H](O)[C@@H]1O` [FRAMYCETIN], the Incidence in the assay listed under Rattus norvegicus [1] turned out to be 80%; in the assay listed under Rattus norvegicus [5], 98%; in the assay listed under Rattus norvegicus [6], 25%; in the assay listed under Rattus norvegicus [7], 22%. Moreover, the No. of tumors in the assay filed under Rattus norvegicus [2] stood at 3; in the assay filed under Rattus norvegicus [3], 0.5; in the assay listed under Rattus norvegicus [4] it was 1.13; in the assay listed under Rattus norvegicus [8], 0.5.
